Test results: ChEMBL document CHEMBL4706554 (Eur J Med Chem, 2020)
The source made the active and inactive calls. The rule behind the calls is not given here.

Experiments:
[1] = biological target: T1, Casein kinase II subunit alpha (Homo sapiens, UniProt P68400); experiment: Displacement of fluorescent tracer from full-length human C-terminal NanoLuc-tagged CK2alpha expressed in HEK293T cells measured after 2 hrs by NanoBRET assay; assay type: cell-based
[2] = biological target: T2, Casein kinase II subunit alpha' (Homo sapiens, UniProt P19784); experiment: Displacement of fluorescent tracer from full-length human C-terminal NanoLuc-tagged CK2alpha' expressed in HEK293T cells measured after 2 hrs by NanoBRET assay; assay type: cell-based
T2 sequence (P19784 whole entry): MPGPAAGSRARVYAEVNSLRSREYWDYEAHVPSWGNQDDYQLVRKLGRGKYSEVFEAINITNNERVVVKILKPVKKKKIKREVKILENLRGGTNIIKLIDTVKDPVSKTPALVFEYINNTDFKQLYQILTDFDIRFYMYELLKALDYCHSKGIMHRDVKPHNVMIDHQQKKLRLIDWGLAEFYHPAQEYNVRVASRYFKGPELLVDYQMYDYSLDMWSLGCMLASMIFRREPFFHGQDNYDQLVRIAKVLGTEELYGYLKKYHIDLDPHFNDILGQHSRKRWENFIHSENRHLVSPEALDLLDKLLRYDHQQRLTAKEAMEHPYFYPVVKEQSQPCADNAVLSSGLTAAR

[3] = biological target: T1, Casein kinase II subunit alpha; experiment: Displacement of fluorescent tracer from full-length human C-terminal NanoLuc-tagged CK2alpha expressed in HEK293T permeabilized cells measured after 2 hrs by NanoBRET assay; assay type: cell-based
[4] = biological target: T2, Casein kinase II subunit alpha'; experiment: Displacement of fluorescent tracer from full-length human C-terminal NanoLuc-tagged CK2alpha' expressed in HEK293T permeabilized cells measured after 2 hrs by NanoBRET assay; assay type: cell-based
[5] = biological target: Dual specificity tyrosine-phosphorylation-regulated kinase 1A (Homo sapiens) (UniProt Q13627); experiment: Inhibition of wild-type human partial length DYRK1A (H129 to S509 residues) expressed in mammalian expression system at 1 uM by Kinomescan method
[6] = biological target: Homeodomain-interacting protein kinase 1 (Homo sapiens) (UniProt Q86Z02); experiment: Inhibition of wild-type human partial length HIPK1 (M146 to I555 residues) expressed in mammalian expression system at 1 uM by Kinomescan method
Homeodomain-interacting protein kinase 1 (Homo sapiens), sequence (Q86Z02 whole entry, looked up, the tested form may be a part): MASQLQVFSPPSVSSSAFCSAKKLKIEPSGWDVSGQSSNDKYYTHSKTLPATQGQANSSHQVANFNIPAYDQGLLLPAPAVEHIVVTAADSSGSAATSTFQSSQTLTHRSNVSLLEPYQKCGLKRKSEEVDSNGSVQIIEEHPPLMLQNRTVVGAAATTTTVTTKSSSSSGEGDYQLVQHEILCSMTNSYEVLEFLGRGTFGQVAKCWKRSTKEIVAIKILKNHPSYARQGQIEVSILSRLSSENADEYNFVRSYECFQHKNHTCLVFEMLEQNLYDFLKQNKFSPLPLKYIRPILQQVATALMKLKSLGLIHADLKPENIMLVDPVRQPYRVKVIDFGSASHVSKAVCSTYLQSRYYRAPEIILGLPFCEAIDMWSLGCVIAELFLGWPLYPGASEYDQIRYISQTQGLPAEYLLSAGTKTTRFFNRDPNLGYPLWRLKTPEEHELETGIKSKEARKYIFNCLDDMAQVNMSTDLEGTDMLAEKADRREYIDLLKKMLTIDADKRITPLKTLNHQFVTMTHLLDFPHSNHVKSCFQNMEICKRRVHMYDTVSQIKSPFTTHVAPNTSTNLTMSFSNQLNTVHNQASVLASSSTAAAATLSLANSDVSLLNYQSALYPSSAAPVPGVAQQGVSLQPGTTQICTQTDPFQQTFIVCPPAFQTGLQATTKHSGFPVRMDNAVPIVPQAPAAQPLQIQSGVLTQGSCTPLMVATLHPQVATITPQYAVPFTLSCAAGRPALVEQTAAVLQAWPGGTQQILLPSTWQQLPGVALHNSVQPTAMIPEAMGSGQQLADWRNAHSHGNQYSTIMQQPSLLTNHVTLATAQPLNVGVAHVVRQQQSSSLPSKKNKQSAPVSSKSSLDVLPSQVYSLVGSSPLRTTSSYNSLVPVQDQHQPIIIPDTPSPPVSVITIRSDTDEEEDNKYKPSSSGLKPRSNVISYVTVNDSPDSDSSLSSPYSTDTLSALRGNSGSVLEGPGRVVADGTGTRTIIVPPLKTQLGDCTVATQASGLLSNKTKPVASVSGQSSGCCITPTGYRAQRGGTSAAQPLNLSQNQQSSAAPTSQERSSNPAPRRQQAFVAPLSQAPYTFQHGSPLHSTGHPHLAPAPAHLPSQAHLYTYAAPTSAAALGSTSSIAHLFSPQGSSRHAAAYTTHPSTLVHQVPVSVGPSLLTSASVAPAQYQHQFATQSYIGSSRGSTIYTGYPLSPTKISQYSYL

CCRF-CEM = experiment: Cytotoxicity against human CCRF-CEM cells assessed as cell growth inhibition at 10 uM incubated for 48 hrs by SRB assay; assay type: functional, cell-based
HL-60(TB) = experiment: Cytotoxicity against human HL-60(TB) cells assessed as cell growth inhibition at 10 uM incubated for 48 hrs by SRB assay; assay type: functional, cell-based
K562 = experiment: Cytotoxicity against human K562 cells assessed as cell growth inhibition at 10 uM incubated for 48 hrs by SRB assay; assay type: functional, cell-based
MOLT-4 = experiment: Cytotoxicity against human MOLT-4 cells assessed as cell growth inhibition at 10 uM incubated for 48 hrs by SRB assay; assay type: functional, cell-based
RPMI-8226 = experiment: Cytotoxicity against human RPMI-8226 cells assessed as cell growth inhibition at 10 uM incubated for 48 hrs by SRB assay; assay type: functional, cell-based
SR = experiment: Cytotoxicity against human SR cells assessed as cell growth inhibition at 10 uM incubated for 48 hrs by SRB assay; assay type: functional, cell-based
A549 = experiment: Cytotoxicity against human A549 cells assessed as cell growth inhibition at 10 uM incubated for 48 hrs by SRB assay; assay type: functional, cell-based
EKVX = experiment: Cytotoxicity against human EKVX cells assessed as cell growth inhibition at 10 uM incubated for 48 hrs by SRB assay; assay type: functional, cell-based
HOP-62 = experiment: Cytotoxicity against human HOP-62 cells assessed as cell growth inhibition at 10 uM incubated for 48 hrs by SRB assay; assay type: functional, cell-based
HOP-92 = experiment: Cytotoxicity against human HOP-92 cells assessed as cell growth inhibition at 10 uM incubated for 48 hrs by SRB assay; assay type: functional, cell-based
NCI-H226 = experiment: Cytotoxicity against human NCI-H226 cells assessed as cell growth inhibition at 10 uM incubated for 48 hrs by SRB assay; assay type: functional, cell-based
NCI-H23 = experiment: Cytotoxicity against human NCI-H23 cells assessed as cell growth inhibition at 10 uM incubated for 48 hrs by SRB assay; assay type: functional, cell-based
NCI-H322M = experiment: Cytotoxicity against human NCI-H322M cells assessed as cell growth inhibition at 10 uM incubated for 48 hrs by SRB assay; assay type: functional, cell-based
NCI-H460 = experiment: Cytotoxicity against human NCI-H460 cells assessed as cell growth inhibition at 10 uM incubated for 48 hrs by SRB assay; assay type: functional, cell-based
NCI-H522 = experiment: Cytotoxicity against human NCI-H522 cells assessed as cell growth inhibition at 10 uM incubated for 48 hrs by SRB assay; assay type: functional, cell-based
COLO 205 = experiment: Cytotoxicity against human COLO 205 cells assessed as cell growth inhibition at 10 uM incubated for 48 hrs by SRB assay; assay type: functional, cell-based
HCC 2998 = experiment: Cytotoxicity against human HCC 2998 cells assessed as cell growth inhibition at 10 uM incubated for 48 hrs by SRB assay; assay type: functional, cell-based
HCT-116 = experiment: Cytotoxicity against human HCT-116 cells assessed as cell growth inhibition at 10 uM incubated for 48 hrs by SRB assay; assay type: functional, cell-based
HCT-15 = experiment: Cytotoxicity against human HCT-15 cells assessed as cell growth inhibition at 10 uM incubated for 48 hrs by SRB assay; assay type: functional, cell-based
HT-29 = experiment: Cytotoxicity against human HT-29 cells assessed as cell growth inhibition at 10 uM incubated for 48 hrs by SRB assay; assay type: functional, cell-based
KM12 = experiment: Cytotoxicity against human KM12 cells assessed as cell growth inhibition at 10 uM incubated for 48 hrs by SRB assay; assay type: functional, cell-based
SW-620 = experiment: Cytotoxicity against human SW-620 cells assessed as cell growth inhibition at 10 uM incubated for 48 hrs by SRB assay; assay type: functional, cell-based
SF-268 = experiment: Cytotoxicity against human SF-268 cells assessed as cell growth inhibition at 10 uM incubated for 48 hrs by SRB assay; assay type: functional, cell-based
SF-295 = experiment: Cytotoxicity against human SF-295 cells assessed as cell growth inhibition at 10 uM incubated for 48 hrs by SRB assay; assay type: functional, cell-based
SF-539 = experiment: Cytotoxicity against human SF-539 cells assessed as cell growth inhibition at 10 uM incubated for 48 hrs by SRB assay; assay type: functional, cell-based
SNB-19 = experiment: Cytotoxicity against human SNB-19 cells assessed as cell growth inhibition at 10 uM incubated for 48 hrs by SRB assay; assay type: functional, cell-based
SNB-75 = experiment: Cytotoxicity against human SNB-75 cells assessed as cell growth inhibition at 10 uM incubated for 48 hrs by SRB assay; assay type: functional, cell-based
U-251 = experiment: Cytotoxicity against human U251 cells assessed as cell growth inhibition at 10 uM incubated for 48 hrs by SRB assay; assay type: functional, cell-based
LOX IMVI = experiment: Cytotoxicity against human LOX IMVI cells assessed as cell growth inhibition at 10 uM incubated for 48 hrs by SRB assay; assay type: functional, cell-based
Malme-3M = experiment: Cytotoxicity against human Malme-3M cells assessed as cell growth inhibition at 10 uM incubated for 48 hrs by SRB assay; assay type: functional, cell-based
M14 = experiment: Cytotoxicity against human M14 cells assessed as cell growth inhibition at 10 uM incubated for 48 hrs by SRB assay; assay type: functional, cell-based
MDA-MB-435 = experiment: Cytotoxicity against human MDA-MB-435 cells assessed as cell growth inhibition at 10 uM incubated for 48 hrs by SRB assay; assay type: functional, cell-based
SK-MEL-2 = experiment: Cytotoxicity against human SK-MEL-2 cells assessed as cell growth inhibition at 10 uM incubated for 48 hrs by SRB assay; assay type: functional, cell-based
SK-MEL-28 = experiment: Cytotoxicity against human SK-MEL-28 cells assessed as cell growth inhibition at 10 uM incubated for 48 hrs by SRB assay; assay type: functional, cell-based
SK-MEL-5 = experiment: Cytotoxicity against human SK-MEL-5 cells assessed as cell growth inhibition at 10 uM incubated for 48 hrs by SRB assay; assay type: functional, cell-based
UACC-257 = experiment: Cytotoxicity against human UACC-257 cells assessed as cell growth inhibition at 10 uM incubated for 48 hrs by SRB assay; assay type: functional, cell-based
UACC-62 = experiment: Cytotoxicity against human UACC-62 cells assessed as cell growth inhibition at 10 uM incubated for 48 hrs by SRB assay; assay type: functional, cell-based
IGROV-1 = experiment: Cytotoxicity against human IGROV-1 cells assessed as cell growth inhibition at 10 uM incubated for 48 hrs by SRB assay; assay type: functional, cell-based
OVCAR-3 = experiment: Cytotoxicity against human OVCAR-3 cells assessed as cell growth inhibition at 10 uM incubated for 48 hrs by SRB assay; assay type: functional, cell-based
OVCAR-4 = experiment: Cytotoxicity against human OVCAR-4 cells assessed as cell growth inhibition at 10 uM incubated for 48 hrs by SRB assay; assay type: functional, cell-based
OVCAR-5 = experiment: Cytotoxicity against human OVCAR-5 cells assessed as cell growth inhibition at 10 uM incubated for 48 hrs by SRB assay; assay type: functional, cell-based
OVCAR-8 = experiment: Cytotoxicity against human OVCAR-8 cells assessed as cell growth inhibition at 10 uM incubated for 48 hrs by SRB assay; assay type: functional, cell-based
NCI/ADR-RES = experiment: Cytotoxicity against human NCI/ADR-RES cells assessed as cell growth inhibition at 10 uM incubated for 48 hrs by SRB assay; assay type: functional, cell-based
SK-OV-3 = experiment: Cytotoxicity against human SK-OV-3 cells assessed as cell growth inhibition at 10 uM incubated for 48 hrs by SRB assay; assay type: functional, cell-based
786-0 = experiment: Cytotoxicity against human 786-0 cells assessed as cell growth inhibition at 10 uM incubated for 48 hrs by SRB assay; assay type: functional, cell-based
A498 = experiment: Cytotoxicity against human A498 cells assessed as cell growth inhibition at 10 uM incubated for 48 hrs by SRB assay; assay type: functional, cell-based
ACHN = experiment: Cytotoxicity against human ACHN cells assessed as cell growth inhibition at 10 uM incubated for 48 hrs by SRB assay; assay type: functional, cell-based
CAKI-1 = experiment: Cytotoxicity against human CAK1 cells assessed as cell growth inhibition at 10 uM incubated for 48 hrs by SRB assay; assay type: functional, cell-based
RXF 393 = experiment: Cytotoxicity against human RXF 393 cells assessed as cell growth inhibition at 10 uM incubated for 48 hrs by SRB assay; assay type: functional, cell-based
SN12C = experiment: Cytotoxicity against human SN12C cells assessed as cell growth inhibition at 10 uM incubated for 48 hrs by SRB assay; assay type: functional, cell-based
TK-10 = experiment: Cytotoxicity against human TK-10 cells assessed as cell growth inhibition at 10 uM incubated for 48 hrs by SRB assay; assay type: functional, cell-based
UO-31 = experiment: Cytotoxicity against human UO-31 cells assessed as cell growth inhibition at 10 uM incubated for 48 hrs by SRB assay; assay type: functional, cell-based
PC-3 = experiment: Cytotoxicity against human PC-3 cells assessed as cell growth inhibition at 10 uM incubated for 48 hrs by SRB assay; assay type: functional, cell-based
DU-145 = experiment: Cytotoxicity against human DU-145 cells assessed as cell growth inhibition at 10 uM incubated for 48 hrs by SRB assay; assay type: functional, cell-based
MCF7 = experiment: Cytotoxicity against human MCF7 cells assessed as cell growth inhibition at 10 uM incubated for 48 hrs by SRB assay; assay type: functional, cell-based
MDA-MB-231 = experiment: Cytotoxicity against human MDA-MB-231 cells assessed as cell growth inhibition at 10 uM incubated for 48 hrs by SRB assay; assay type: functional, cell-based
MDA-MB-468 = experiment: Cytotoxicity against human MDA-MB-468 cells assessed as cell growth inhibition at 10 uM incubated for 48 hrs by SRB assay; assay type: functional, cell-based
Hs-578T = experiment: Cytotoxicity against human Hs-578T cells assessed as cell growth inhibition at 10 uM incubated for 48 hrs by SRB assay; assay type: functional, cell-based
T47D = experiment: Cytotoxicity against human T47D cells assessed as cell growth inhibition at 10 uM incubated for 48 hrs by SRB assay; assay type: functional, cell-based
BT-549 = experiment: Cytotoxicity against human BT-549 cells assessed as cell growth inhibition at 10 uM incubated for 48 hrs by SRB assay; assay type: functional, cell-based

T1 sequence (P68400 whole entry): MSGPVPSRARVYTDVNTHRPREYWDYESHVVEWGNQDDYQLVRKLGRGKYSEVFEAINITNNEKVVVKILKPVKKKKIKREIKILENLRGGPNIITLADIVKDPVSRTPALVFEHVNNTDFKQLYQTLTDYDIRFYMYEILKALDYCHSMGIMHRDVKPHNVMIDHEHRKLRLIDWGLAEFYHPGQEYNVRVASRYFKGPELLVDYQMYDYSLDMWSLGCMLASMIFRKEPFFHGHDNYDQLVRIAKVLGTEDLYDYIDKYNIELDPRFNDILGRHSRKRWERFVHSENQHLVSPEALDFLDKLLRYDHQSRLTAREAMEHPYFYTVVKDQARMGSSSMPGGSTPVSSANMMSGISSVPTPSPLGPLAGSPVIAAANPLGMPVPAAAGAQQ

Structure (SMILES): COC(=O)c1ccc(-c2cnn3ccc(N(CCOCCO)C(=O)OC(C)(C)C)nc23)cc1O
- IC50 [1]: > 50 µM
- IC50 [2]: > 50 µM
- IC50 [3]: 7.52 µM
- IC50 [4]: > 50 µM

Structure (SMILES): COC(=O)c1ccc2cc1OCCOCCNc1ccn3ncc-2c3n1
- IC50 [1]: > 50 µM
- IC50 [2]: > 50 µM
- IC50 [3]: 13.2 µM
- IC50 [4]: > 50 µM

Structure (SMILES): CC(C)(C)OC(=O)N1CCOCCOc2cc(ccc2C(=O)O)-c2cnn3ccc1nc23
- IC50 [4]: 0.771 µM

Structure (SMILES): O=C(O)c1ccc2cc1OCCOCCNc1ccn3ncc-2c3n1
- IC50 [3]: 0.075 µM
- IC50 [4]: 0.303 µM

Structure (SMILES): CC(C)(C)OC(=O)N(CCOCCO)c1ccn2ncc(-c3ccc(C(=O)O)c(O)c3)c2n1
- inhibition [5]: inactive
- inhibition [6]: inactive
- Activity (CCRF-CEM): inactive
- Activity (HL-60(TB)): inactive
- Activity (K562): inactive
- Activity (MOLT-4): inactive
- Activity (RPMI-8226): inactive
- Activity (SR): inactive
- Activity (A549): inactive
- Activity (EKVX): inactive
- Activity (HOP-62): inactive
- Activity (HOP-92): inactive
- Activity (NCI-H226): inactive
- Activity (NCI-H23): inactive
- Activity (NCI-H322M): inactive
- Activity (NCI-H460): inactive
- Activity (NCI-H522): inactive
- Activity (COLO 205): inactive
- Activity (HCC 2998): inactive
- Activity (HCT-116): inactive
- Activity (HCT-15): inactive
- Activity (HT-29): inactive
- Activity (KM12): inactive
- Activity (SW-620): inactive
- Activity (SF-268): inactive
- Activity (SF-295): inactive
- Activity (SF-539): inactive
- Activity (SNB-19): inactive
- Activity (SNB-75): inactive
- Activity (U-251): inactive
- Activity (LOX IMVI): inactive
- Activity (Malme-3M): inactive
- Activity (M14): inactive
- Activity (MDA-MB-435): inactive
- Activity (SK-MEL-2): inactive
- Activity (SK-MEL-28): inactive
- Activity (SK-MEL-5): inactive
- Activity (UACC-257): inactive
- Activity (UACC-62): inactive
- Activity (IGROV-1): inactive
- Activity (OVCAR-3): inactive
- Activity (OVCAR-4): inactive
- Activity (OVCAR-5): inactive
- Activity (OVCAR-8): inactive
- Activity (NCI/ADR-RES): inactive
- Activity (SK-OV-3): inactive
- Activity (786-0): inactive
- Activity (A498): inactive
- Activity (ACHN): inactive
- Activity (CAKI-1): inactive
- Activity (RXF 393): inactive
- Activity (SN12C): inactive
- Activity (TK-10): inactive
- Activity (UO-31): inactive
- Activity (PC-3): inactive
- Activity (DU-145): inactive
- Activity (MCF7): inactive
- Activity (MDA-MB-231): inactive
- Activity (MDA-MB-468): inactive
- Activity (Hs-578T): inactive
- Activity (T47D): inactive
- Activity (BT-549): inactive
